Values of other authors, collected in patent US20200147118A1, “COMPOSITIONS AND METHODS FOR DETECTION, RISK ASSESSMENT AND TREATMENT OF DIABETES, OBESITY, AND INFLAMMATION” (OTTAWA HEART INSTITUTE RESEARCH CORPORATION, priority 2018, published 2020).

Test system: iNKTs
Details: obese mice, WT vehicle vs WT αGalCer, dataset GSE36032

Compound: CCCCCCCCCCCCCCCCCCCCCCCCCC(=O)N[C@@H](CO[C@H]1O[C@H](CO)[C@H](O)[C@H](O)[C@H]1O)[C@H](O)[C@H](O)CCCCCCCCCCCCCC [αGalCer]
- E4bp4 expression in adipose tissue: increases
- Ripk1 expression in adipose tissue: reduces
